Measurements: PMC9637222, “Autoinducer-2 and bile salts induce c-di-GMP synthesis to repress the T3SS via a T3SS chaperone” (Nature Communications, 2022)
“And” between values parts separate entries of the source, which are not always exact repeats. Equal entries are not always repeated. “Also recorded” adds a separate entry of the source. Where two headings read alike, the source gives them in different places.

Columns and labels:
[1] = system: S. Typhimurium; assay: Biofilm formation (crystal violet staining); assay type: cell-based; conditions: for OD590: 1 μM, Fig. 4c; for Biofilm formation (in words): strain SL1344, individual components of bile salts
Protocol: Biofilm formation was measured by crystal violet staining. In brief, overnight cultures of S. Typhimurium strains were diluted with fresh LB medium to an OD600 of 0.05, and 200 μl aliquots of the diluted cells were inoculated into each well of a sterile flat-bottomed 96-well polystyrene microtiter plate. After incubation at 37 °C for 24 h without shaking, culture supernatants were removed, and the wells were washed twice with sterilized water. Cells adhering to the wells were then stained with 0.1% (w/v) crystal violet for 15 min, followed by two washes using distilled water to remove unbound dye. […] For swimming motility assay, overnight cultures of S. Typhimurium strains were diluted to an OD600 of 0.5, and 2 μl aliquots of the diluted cells were spotted onto 0.3% tryptone agar (1% tryptone, 0.5% NaCl, and 0.3% Bacto agar [Difco]). Motility halos were measured after the plates were incubated at 37 °C for 12 h.

[2] = target: T1, SicA (Salmonella typhimurium, UniProt P69066); assay: ITC: nucleotide (c-di-GMP, c-di-AMP, cGMP) binding to SicA; set-up: species or system S. Typhimurium; conditions: same experimental conditions as c-di-GMP
T1 construct: His6 (N, cleaved yes); made in house; host or cells: E. coli BL21(DE3), pET-28a (pET28a-sicA)
T1 sequence (P69066 whole entry): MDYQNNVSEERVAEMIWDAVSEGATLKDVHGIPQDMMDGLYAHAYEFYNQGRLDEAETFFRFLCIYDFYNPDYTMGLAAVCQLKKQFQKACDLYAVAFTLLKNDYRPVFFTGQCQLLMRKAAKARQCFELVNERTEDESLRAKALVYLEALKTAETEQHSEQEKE

[3] = target: T2, YedQ-LBD (Salmonella typhimurium, UniProt Q8ZNT5); assay: biochemical; assay type: binding, S. Typhimurium
T2 construct: the periplasmic LBD (residues 43–357) of YedQ is structurally not well defined; His6 (N, cleaved yes); made in house; host or cells: E. coli BL21(DE3) or its luxS deletion derivative, pET-28a
T2 sequence (Q8ZNT5 43-357): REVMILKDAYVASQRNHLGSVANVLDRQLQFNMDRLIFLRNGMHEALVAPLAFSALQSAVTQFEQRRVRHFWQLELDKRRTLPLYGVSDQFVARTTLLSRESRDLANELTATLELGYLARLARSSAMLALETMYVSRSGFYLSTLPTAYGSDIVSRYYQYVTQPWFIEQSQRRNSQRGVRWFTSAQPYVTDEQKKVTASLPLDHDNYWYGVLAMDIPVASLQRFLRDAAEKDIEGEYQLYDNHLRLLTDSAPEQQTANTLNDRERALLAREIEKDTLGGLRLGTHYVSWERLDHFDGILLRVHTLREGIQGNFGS
Protocol: (§1) ITC measurements were carried out at 20 °C with a Nano ITC Standard Volume isothermal calorimeter (TA Instruments, New Castle, DE) controlled by the ITCRun software. The N-terminal His6 tags of all purified proteins were removed before ITC analysis. For titrations with DPD/AI-2 (Omm Scientific), the tag-free proteins were dialyzed against a Tris buffer (25 mM Tris-HCl, 150 mM NaCl, pH 7.5) and diluted to 70 μM, while DPD/AI-2 was diluted with the same buffer to 700 μM. […] After being degassed, 1 ml of the protein and 250 μl of the ligand solution were added to the sample cell and the syringe, respectively. There were 25 injections per experiment and the stirring speed was 200 rpm. In control experiments, the ligand solution was titrated into the buffer in the sample cell to obtain the heat of dilution. Microcalorimetric data were corrected by subtracting the heats of dilution and fit to the independent binding site model using the NanoAnalyze software.

[4] = target: YedQ-LBD D233A (Salmonella typhimurium, UniProt Q8ZNT5, D233A); assay: biochemical
YedQ-LBD D233A, sequence (Q8ZNT5 43-357 D233A): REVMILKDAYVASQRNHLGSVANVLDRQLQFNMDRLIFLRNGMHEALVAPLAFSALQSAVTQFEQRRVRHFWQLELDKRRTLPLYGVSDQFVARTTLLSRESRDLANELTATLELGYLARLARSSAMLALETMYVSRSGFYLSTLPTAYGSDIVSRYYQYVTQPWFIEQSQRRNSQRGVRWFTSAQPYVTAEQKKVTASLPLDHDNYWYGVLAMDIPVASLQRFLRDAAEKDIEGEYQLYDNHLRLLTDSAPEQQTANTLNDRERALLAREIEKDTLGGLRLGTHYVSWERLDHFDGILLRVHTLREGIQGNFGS
Protocol: as §1
(§2) The binding affinitywas evaluated using ITC analysis. ITC data and plots of injected heat for injections
(§3) binding curves were corrected for the dilution effects in the final analysis.
(§4) The Kd and binding stoichiometry
(§5) (n)values were presented as mean ± s.d. of three independent experiments. Source data are provided

[5] = target: YedQ-LBD K236A (Salmonella typhimurium, UniProt Q8ZNT5, K236A); assay: biochemical
YedQ-LBD K236A, sequence (Q8ZNT5 43-357 K236A): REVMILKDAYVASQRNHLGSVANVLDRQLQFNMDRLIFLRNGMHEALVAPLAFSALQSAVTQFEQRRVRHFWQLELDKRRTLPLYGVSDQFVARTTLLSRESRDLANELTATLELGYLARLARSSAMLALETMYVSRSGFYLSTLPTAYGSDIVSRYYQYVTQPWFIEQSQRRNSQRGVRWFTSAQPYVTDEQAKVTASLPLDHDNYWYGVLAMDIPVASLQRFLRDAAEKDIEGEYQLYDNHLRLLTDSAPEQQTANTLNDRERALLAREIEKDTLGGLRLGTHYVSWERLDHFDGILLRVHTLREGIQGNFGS
Protocol: as §1, §2, §3, §4, §5

[6] = target: YedQ-LBD L288A (Salmonella typhimurium, UniProt Q8ZNT5, L288A); assay: biochemical
YedQ-LBD L288A, sequence (Q8ZNT5 43-357 L288A): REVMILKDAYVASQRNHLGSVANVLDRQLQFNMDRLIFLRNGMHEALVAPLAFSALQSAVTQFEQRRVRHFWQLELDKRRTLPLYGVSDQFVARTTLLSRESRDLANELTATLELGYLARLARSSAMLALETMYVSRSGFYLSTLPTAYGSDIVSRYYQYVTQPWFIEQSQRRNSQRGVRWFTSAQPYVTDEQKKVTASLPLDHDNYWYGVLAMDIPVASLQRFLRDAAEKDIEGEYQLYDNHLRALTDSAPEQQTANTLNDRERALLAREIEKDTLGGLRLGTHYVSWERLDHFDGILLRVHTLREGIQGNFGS
Protocol: as §1, §2, §3, §4, §5

[7] = target: YedQ-LBD L289A (Salmonella typhimurium, UniProt Q8ZNT5, L289A); assay: biochemical
YedQ-LBD L289A, sequence (Q8ZNT5 43-357 L289A): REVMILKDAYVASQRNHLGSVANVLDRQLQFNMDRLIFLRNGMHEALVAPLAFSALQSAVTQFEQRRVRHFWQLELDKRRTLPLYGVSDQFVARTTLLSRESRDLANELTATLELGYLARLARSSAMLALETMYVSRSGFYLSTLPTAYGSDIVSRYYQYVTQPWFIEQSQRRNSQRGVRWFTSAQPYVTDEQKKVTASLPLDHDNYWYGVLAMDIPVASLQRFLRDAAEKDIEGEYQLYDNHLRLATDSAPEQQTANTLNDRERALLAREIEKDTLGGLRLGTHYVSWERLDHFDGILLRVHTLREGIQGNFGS
Protocol: as §1, §2, §3, §4, §5

[8] = target: YedQ-LBD Q264A (Salmonella typhimurium, UniProt Q8ZNT5, Q264A); assay: biochemical
YedQ-LBD Q264A, sequence (Q8ZNT5 43-357 Q264A): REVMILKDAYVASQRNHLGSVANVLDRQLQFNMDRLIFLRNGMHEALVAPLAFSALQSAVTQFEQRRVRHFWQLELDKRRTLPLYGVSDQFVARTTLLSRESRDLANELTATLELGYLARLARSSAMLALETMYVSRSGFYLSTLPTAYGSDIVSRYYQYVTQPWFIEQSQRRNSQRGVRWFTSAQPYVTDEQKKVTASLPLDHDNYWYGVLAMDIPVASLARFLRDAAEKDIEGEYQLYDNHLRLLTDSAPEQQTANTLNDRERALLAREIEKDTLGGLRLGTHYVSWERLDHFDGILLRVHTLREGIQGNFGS
Protocol: as §1, §2, §3, §4, §5

[9] = target: T3, WP_010904779-LBD (Escherichia coli O157:H7, UniProt Q8XB92); assay: biochemical; assay type: binding, EHEC O157:H7; conditions: for Binding affinity (in words) / Kd: ITC; for Binding affinity (in words): LBD of the YedQ homolog from EHEC O157:H7
T3 construct: His6 (N, cleaved yes); made in house; host or cells: E. coli BL21(DE3) or its luxS deletion derivative
T3 sequence (Q8XB92 43-357 limits assumed): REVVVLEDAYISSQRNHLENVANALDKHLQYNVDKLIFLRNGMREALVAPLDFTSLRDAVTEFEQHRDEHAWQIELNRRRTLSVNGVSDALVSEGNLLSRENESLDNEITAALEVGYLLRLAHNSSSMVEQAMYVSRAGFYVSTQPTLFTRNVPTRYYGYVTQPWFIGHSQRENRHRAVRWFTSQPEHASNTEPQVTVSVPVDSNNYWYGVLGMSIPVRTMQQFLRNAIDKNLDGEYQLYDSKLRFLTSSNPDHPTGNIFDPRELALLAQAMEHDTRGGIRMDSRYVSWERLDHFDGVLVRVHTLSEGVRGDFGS
Protocol: as §1
The binding affinity was evaluated by ITC analysis. ITC data and plots of injected heat for automatic
WP_010904779-LBD are shown in the upper and lower plots, respectively. The binding curves were
corrected for the dilution effects in the finalanalysis.
Kd and binding stoichiometry (n) are presented as mean ± s.d. of three

[10] = system: T4, YedQ; assay: In vitro DGC activity assay of YedQ (membrane fractions, HPLC of c-di-GMP); assay type: biochemical, S. Typhimurium; conditions: for Effect on DGC activity of YedQ in c-di-GMP synthesis (in words): in vitro, membrane fractions
T4 construct: Preparation of membrane fractions containing full-length YeaJ and YedQ; made in house; host or cells: ΔluxS mutant of E. coli BL21(DE3), membrane fractions

[11] = system: S. Typhimurium; assay: Cellular c-di-GMP quantification by LC-MS/MS; assay type: cell-based; conditions: 1 μM; for c-di-GMP (fmol/107 cells): strain WT(Vector), Fig. 4e; for Change of intracellular c-di-GMP levels (in words): wild-type strain; for Induction of intracellular c-di-GMP levels (in words): ΔyedQ mutant
Protocol: For stimulation with AI-2, the DPD/AI-2 solution was added to the shaking culture at OD600 of 1.3, followed by another 30 min of incubation at 37 °C. For induction by porcine bile salts and individual bile components (Sigma-Aldrich), substances were added to the static culture at OD600 of 1.1, followed by another 30 min of incubation at 37 °C. About 15 ml of culture was centrifuged and the cells were washed twice with phosphate-buffered saline (PBS, pH 7.0). The cell pellets were resuspended in 500 μl of extraction solution (acetonitrile/methanol/water, 40:40:20, v/v/v) and cooled on ice for 15 min. The samples were boiled for 10 min at 95 °C and then cooled again on ice for 15 min. After centrifugation at 20,000×g and 4 °C for 10 min, supernatants were transferred to new tubes on ice. The remaining pellets were used for two more extraction steps with 500 μl of the extraction solution without heating. Pooled supernatants for each sample were lyophilized, and pellets were resolubilized in 200 μl of distilled water. C-di-GMP concentrations were then measured by LC-MS/MS[63] (AB SCIEX QTRAP 6500+ LC-MS/MS System). Intracellular levels of c-di-GMP were normalized to the number of bacterial cells for each sample.

SMILES | OD590 [1] | Binding to SicA (in words) [2] | Binding affinity (in words) [9] | Concentration of c-di-GMP ([10]; 100 μM, 30 min) | Concentration of c-di-GMP ([10]; 100 μM, 60 min) | Concentration of c-di-GMP ([10]; 200 μM, 30 min) | Concentration of c-di-GMP ([10]; 200 μM, 60 min) | Effect on DGC activity of YedQ in c-di-GMP synthesis (in words) [10] | c-di-GMP (fmol/107 cells) [11] | Change of intracellular c-di-GMP levels (in words) [11] | Induction of intracellular c-di-GMP levels (in words) [11] | Biofilm formation (in words) [1] | further results
C[C@H](CCC(=O)O)[C@H]1CC[C@H]2[C@@H]3[C@H](O)C[C@@H]4C[C@H](O)CC[C@]4(C)[C@H]3C[C@H](O)[C@]12C [Cholate] | 2.29 and 2.20 and 2.14 |  |  |  |  |  |  |  |  |  |  |  | 
C[C@H](CCC(=O)NCC(=O)O)[C@H]1CC[C@H]2[C@@H]3[C@H](O)C[C@@H]4C[C@H](O)CC[C@]4(C)[C@H]3C[C@H](O)[C@]12C [Glycocholate] | 2.14 |  |  |  |  |  |  |  |  |  |  |  | 
Nc1ncnc2c1ncn2[C@@H]1O[C@@H]2COP(=O)(O)O[C@H]3[C@@H](O)[C@H](n4cnc5c(N)ncnc54)O[C@@H]3COP(=O)(O)O[C@H]2[C@H]1O [c-di-AMP] |  | no binding |  |  |  |  |  |  |  |  |  |  | 
Nc1nc2c(ncn2[C@@H]2O[C@@H]3COP(=O)(O)O[C@H]3[C@H]2O)c(=O)[nH]1 [cGMP] |  | no binding |  |  |  |  |  |  |  |  |  |  | 
C[C@H](CCC(=O)NCCS(=O)(=O)O)[C@H]1CC[C@H]2[C@@H]3[C@H](O)C[C@@H]4C[C@H](O)CC[C@]4(C)[C@H]3C[C@H](O)[C@]12C [taurocholate] |  |  | high binding; also recorded: high affinity | 22.83 µM and 22.66 µM and 23.00 µM | 34.84 µM and 35.29 µM and 36.56 µM | 39.61 µM and 38.40 µM and 39.33 µM | 45.78 µM and 46.73 µM and 45.87 µM | induce the DGC activity | 57.59 fmol/107 cells and 62.54 fmol/107 cells and 56.52 fmol/107 cells | significant increase | completely abolished | significantly stimulated biofilm formation | Kd ([3]; Kd (μM), binding to YedQ-LBD (WT)): 0.2 µM and 0.13 µM and 0.16 µM; Kd ([3]; Kd, ITC, YedQ-LBD WT, mean ± s.d. of three independent experiments): 0.17 ± 0.03 µM; Kd ([4]; Binding affinity Kd (μM), ITC, YedQ-LBD D233A, mean ± s.d.): 18 ± 1 µM; n, Taurocholate binding to YedQ-LBDD233A ([4]; ITC binding stoichiometry n, individual replicates, Supplementary Figure 11a): 1.11 and 1.16 and 1.13; Kd ([4]; Kd (μM), binding to YedQ-LBD D233A): 18 µM and 16 µM; Kd ([4]; Kd, Taurocholate binding to YedQ-LBDD233A, ITC, individual replicates, Supplementary Figure 11a): 18 µM; Kd ([5]; Binding affinity Kd (μM), ITC, YedQ-LBD K236A, mean ± s.d.): 27 ± 2 µM; n, Taurocholate binding to YedQ-LBDK236A ([5]; ITC binding stoichiometry n, individual replicates, Supplementary Figure 11b): 1.04 and 1.09 and 1.01; Kd ([5]; Kd (μM), binding to YedQ-LBD K236A): 24 µM and 26 µM and 30 µM; n, Taurocholate binding to YedQ-LBDL288A ([6]; ITC binding stoichiometry n, individual replicates, Supplementary Figure 11d): 1.10 and 1.02 and 1.07; Kd ([6]; Kd (μM), binding to YedQ-LBD L288A): 18 µM and 21 µM and 24 µM; n, Taurocholate binding to YedQ-LBDL289A ([7]; ITC binding stoichiometry n, individual replicates, Supplementary Figure 11e): 1.18 and 1.14 and 1.16; Kd ([7]; Kd (μM), binding to YedQ-LBD L289A): 7.7 µM and 6.8 µM and 7.2 µM; n, Taurocholate binding to YedQ-LBDQ264A ([8]; ITC binding stoichiometry n, individual replicates, Supplementary Figure 11c): 1.07 and 1.18 and 1.00; Kd ([8]; Kd (μM), binding to YedQ-LBD Q264A): 14 µM and 12 µM and 15 µM; n, Taurocholate binding to WP_010904779-LBD ([9]; ITC binding stoichiometry n, individual replicates, Supplementary Figure 24a): 1.06 and 1.08 and 1.12; Kd ([9]; Taurocholate binding to WP_010904779-LBD, individual replicates, Supplementary Figure 24a): 0.19 µM and 0.22 µM and 0.23 µM
C[C@H](CCC(=O)NCCS(=O)(=O)O)[C@H]1CC[C@H]2[C@@H]3CC[C@@H]4C[C@H](O)CC[C@]4(C)[C@H]3C[C@H](O)[C@]12C [taurodeoxycholate] |  |  | high binding; also recorded: high affinity | 22.89 µM and 24.25 µM and 23.52 µM | 34.75 µM and 35.42 µM and 35.31 µM | 37.84 µM and 36.56 µM and 37.20 µM | 46.63 µM and 47.86 µM and 45.57 µM | induce the DGC activity | 78.56 fmol/107 cells and 82.79 fmol/107 cells and 79.80 fmol/107 cells | significant increase | completely abolished | significantly stimulated biofilm formation | Kd ([3]; ITC, YedQ-LBD WT, mean ± s.d. of three independent experiments, read-out: Kd): 0.14 ± 0.02 µM; Kd ([3]; binding to YedQ-LBD (WT), read-out: Kd): 0.15 µM and 0.17 µM and 0.11 µM; n, Taurodeoxycholate binding to WP_010904779-LBD ([9]; ITC binding stoichiometry n, individual replicates, Supplementary Figure 24b): 1.13 and 1.09 and 1.12; Kd ([9]; Taurodeoxycholate binding to WP_010904779-LBD, individual replicates, Supplementary Figure 24b): 0.13 µM and 0.17 µM and 0.19 µM
